Values of other authors in patent publication US8962847B2, “Multicomponent crystals made of ([2-amino-6-(4-fluoro-benzylamino)-pyridin-3-yl]-carbamic acid ethyl ester and an arylpropionic acid” (TEVA GmbH, priority 2010, dated 2015).
Where a name gives a salt, the structure may show the parent alone. Read-outs that look alike come from different tables or passages of the source.

Assays:
[1] = test system: antinociceptive (pain perception inhibiting) activity; conditions: rat, flupirtine maleate 35 mg per kg with various dosages of NSAIDS
[2] = test system: antinociceptive (pain perception inhibiting) activity; conditions: mice, flupirtine maleate 15 mg per kg with various dosages of NSAIDS
[3] = test system: pain, fever, inflammation; conditions: in vivo

In the case of `CCOC(=O)Nc1ccc(NCc2ccc(F)cc2)nc1N` [flupirtine maleate], the “effect on the antinociceptive activity of paracetamol, acetyl salicylic acid, and diclofenac” value [1] is listed as “enhances” and the “effect on the antinociceptive activity of paracetamol, acetyl salicylic acid, and diclofenac” value [2] is listed as “enhances”.

For `CC(C)Cc1ccc([C@H](C)C(=O)O)cc1` [dexibuprofen, (+)-(2S)-2-[4-(2-methylpropyl)-phenyl]propanoic acid], the “beginning of action compared with the racemic mixture of ibuprofen” value [3] is given as “somewhat faster”.
